# ChEMBL document CHEMBL1799932, “Antimalarial pyrido[1,2-a]benzimidazoles” (J Med Chem, 2011)
# pIC50: −log10 of the molar value.
# Columns and labels:
# L6 = experiment: Cytotoxicity at rat L6 cells after 72 hrs by microplate alamar blue assay; format: cell-based; conditions: l6
# Rattus norvegicus [1] = experiment: AUC (0 to tlast) in fasted Sprague-Dawley rat assessed as 1-(2-Diethylaminoethylamino)-3-[4-(trifluoromethyl)phenyl]-pyrido[1,2-a]benzimidazole-4-carbonitrile at 5 mg/kg, iv after 48 hrs by LC-MS analysis; format: ADME, organism-based, Plasma; parameters: time < 48 hr, dose 5 mg/kg, route intravenous; conditions: in vivo
# Rattus norvegicus [2] = experiment: Drug excretion in fasted Sprague-Dawley rat urine assessed as 1-(2-Ethylaminoethylamino)-3-[4-(trifluoromethyl)phenyl]- pyrido[1,2-a]benzimidazole-4-carbonitrile level at 20 mg/kg, po after 48 hrs by LC-MS analysis; format: ADME, organism-based; parameters: dose 20 mg/kg, route oral; conditions: in vivo
# Rattus norvegicus [3] = experiment: AUC (0 to tlast) in fasted Sprague-Dawley rat assessed as 1-(2-Ethylaminoethylamino)-3-[4-(trifluoromethyl)phenyl]- pyrido[1,2-a]benzimidazole-4-carbonitrile level at 5 mg/kg, iv after 48 hrs by LC-MS analysis; format: ADME, organism-based, Plasma; parameters: time < 48 hr, dose 5 mg/kg, route intravenous; conditions: in vivo
# Plasma [4] = experiment: Plasma protein binding in mouse assessed as 1-(2-Diethylaminoethylamino)-3-[4-(trifluoromethyl)phenyl]-pyrido[1,2-a]benzimidazole-4-carbonitrile at 5 mg/kg, iv after 48 hrs by LC-MS analysis; format: ADME, organism-based; parameters: dose 5 mg/kg, route intravenous; conditions: in vivo
# Rattus norvegicus [5] = experiment: Apparent half life in fasted Sprague-Dawley rat assessed as 1-(2-Diethylaminoethylamino)-3-[4-(trifluoromethyl)phenyl]-pyrido[1,2-a]benzimidazole-4-carbonitrile at 5 mg/kg, iv after 48 hrs by LC-MS analysis; format: ADME, organism-based; parameters: dose 5 mg/kg, route intravenous; conditions: in vivo
# Plasmodium berghei [6] = experiment: Antimalarial activity against GFP-transfected Plasmodium berghei strain ANKA infected in NMRI mouse assessed as reduction in parasitemia at 50 mg/kg, po administered as single dose measured on day 3 by FACS analysis; format: functional; parameters: scale not given: the % may be the effect or the level left
# Rattus norvegicus [7] = experiment: Cmax in fasted Sprague-Dawley rat assessed as 1-(2-Diethylaminoethylamino)-3-[4-(trifluoromethyl)phenyl]-pyrido[1,2-a]benzimidazole-4-carbonitrile at 20 mg/kg, po after 48 hrs by LC-MS analysis; format: ADME, organism-based; parameters: dose 20 mg/kg, route oral; conditions: in vivo
# Rattus norvegicus [8] = experiment: Apparent half life in fasted Sprague-Dawley rat assessed as 1-(2-Diethylaminoethylamino)-3-[4-(trifluoromethyl)phenyl]-pyrido[1,2-a]benzimidazole-4-carbonitrile at 20 mg/kg, po after 48 hrs by LC-MS analysis; format: ADME, organism-based; parameters: dose 20 mg/kg, route oral; conditions: in vivo
# [9] = Metabolic stability in rat liver microsomes assessed as degradation half life after 60 mins by LC-MS analysis; format: ADME, Microsome
# Plasmodium berghei [10] = experiment: Antimalarial activity against GFP-transfected Plasmodium berghei strain ANKA infected in NMRI mouse assessed as increase in median survival time at 50 mg/kg/day, ip administered for 4 days measured up to 30 days post infection (reference value: 5 to 7 days); format: functional; conditions: route intraperitoneal
# Plasmodium berghei [11] = experiment: Antimalarial activity against GFP-transfected Plasmodium berghei strain ANKA infected in NMRI mouse assessed as reduction in parasitemia at 50 mg/kg, po administered as single dose measured on day 4 by FACS analysis; format: functional; parameters: scale not given: the % may be the effect or the level left
# Rattus norvegicus [12] = experiment: Oral bioavailability in fasted Sprague-Dawley rat assessed as 1-(2-Diethylaminoethylamino)-3-[4-(trifluoromethyl)phenyl]-pyrido[1,2-a]benzimidazole-4-carbonitrile at 20 mg/kg, po after 48 hrs by LC-MS analysis; format: ADME, organism-based; conditions: in vivo
# Plasma [13] = experiment: Plasma protein binding in human assessed as 1-(2-Diethylaminoethylamino)-3-[4-(trifluoromethyl)phenyl]-pyrido[1,2-a]benzimidazole-4-carbonitrile at 5 mg/kg, iv after 48 hrs by LC-MS analysis; format: ADME, organism-based; parameters: dose 5 mg/kg, route intravenous; conditions: in vivo
# [14] = Metabolic stability in mouse liver microsomes assessed as intrinsic clearance per mg protein after 60 mins by LC-MS analysis; format: ADME, Microsome
# [15] = Metabolic stability in human liver microsomes assessed as degradation half life after 60 mins by LC-MS analysis; format: ADME, Microsome
# [16] = Metabolic stability in rat liver microsomes assessed as intrinsic clearance per mg protein after 60 mins by LC-MS analysis; format: ADME, Microsome
# Plasmodium berghei [17] = experiment: Antimalarial activity against GFP-transfected Plasmodium berghei strain ANKA infected in NMRI mouse assessed as reduction in parasitemia at 50 mg/kg, po administered as single dose measured on day 5 by FACS analysis; format: functional; parameters: scale not given: the % may be the effect or the level left
# Rattus norvegicus [18] = experiment: Tmax in fasted Sprague-Dawley rat assessed as 1-(2-Diethylaminoethylamino)-3-[4-(trifluoromethyl)phenyl]-pyrido[1,2-a]benzimidazole-4-carbonitrile at 20 mg/kg, po after 48 hrs by LC-MS analysis; format: ADME, organism-based; parameters: dose 20 mg/kg, route oral; conditions: in vivo
# Rattus norvegicus [19] = experiment: AUC (0 to tlast) in fasted Sprague-Dawley rat assessed as 1-(2-Diethylaminoethylamino)-3-[4-(trifluoromethyl)phenyl]-pyrido[1,2-a]benzimidazole-4-carbonitrile at 20 mg/kg, po after 48 hrs by LC-MS analysis; format: ADME, organism-based, Plasma; parameters: time < 48 hr, dose 20 mg/kg, route oral; conditions: in vivo
# Rattus norvegicus [20] = experiment: Drug excretion in fasted Sprague-Dawley rat urine assessed as 1-(2-Diethylaminoethylamino)-3-[4-(trifluoromethyl)phenyl]-pyrido[1,2-a]benzimidazole-4-carbonitrile at 20 mg/kg, po after 48 hrs by LC-MS analysis; format: ADME, organism-based; parameters: dose 20 mg/kg, route oral; conditions: in vivo
# Rattus norvegicus [21] = experiment: Apparent volume of distribution in fasted Sprague-Dawley rat assessed as 1-(2-Diethylaminoethylamino)-3-[4-(trifluoromethyl)phenyl]-pyrido[1,2-a]benzimidazole-4-carbonitrile at 5 mg/kg, iv after 48 hrs by LC-MS analysis; format: ADME, organism-based; parameters: dose 5 mg/kg, route intravenous; conditions: in vivo
# Rattus norvegicus [22] = experiment: Drug excretion in fasted Sprague-Dawley rat urine assessed as 1-(2-Diethylaminoethylamino)-3-[4-(trifluoromethyl)phenyl]-pyrido[1,2-a]benzimidazole-4-carbonitrile at 5 mg/kg, iv after 48 hrs by LC-MS analysis; format: ADME, organism-based; parameters: dose 5 mg/kg, route intravenous; conditions: in vivo
# Rattus norvegicus [23] = experiment: Tmax in fasted Sprague-Dawley rat assessed as 1-(2-Ethylaminoethylamino)-3-[4-(trifluoromethyl)phenyl]- pyrido[1,2-a]benzimidazole-4-carbonitrile level at 20 mg/kg, po after 48 hrs by LC-MS analysis; format: ADME, organism-based; parameters: dose 20 mg/kg, route oral; conditions: in vivo
# Plasmodium berghei [24] = experiment: Antimalarial activity against GFP-transfected Plasmodium berghei strain ANKA infected in NMRI mouse assessed as reduction in parasitemia at 25 mg/kg, po administered as single dose measured on day 2 by FACS analysis; format: functional; parameters: scale not given: the % may be the effect or the level left
# Rattus norvegicus [25] = experiment: Tmax in fasted Sprague-Dawley rat assessed as 1-(2-Ethylaminoethylamino)-3-[4-(trifluoromethyl)phenyl]- pyrido[1,2-a]benzimidazole-4-carbonitrile level at 5 mg/kg, iv after 48 hrs by LC-MS analysis; format: ADME, organism-based; parameters: dose 5 mg/kg, route intravenous; conditions: in vivo
# [26] = Metabolic stability in human liver microsomes assessed as intrinsic clearance per mg protein after 60 mins by LC-MS analysis; format: ADME, Microsome
# Plasmodium berghei [27] = experiment: Antimalarial activity against GFP-transfected Plasmodium berghei strain ANKA infected in NMRI mouse assessed as reduction in parasitemia at 25 mg/kg, po administered as single dose measured on day 4 by FACS analysis; format: functional; parameters: scale not given: the % may be the effect or the level left
# [28] = Metabolic stability in mouse liver microsomes assessed as degradation half life after 60 mins by LC-MS analysis; format: ADME, Microsome
# Plasmodium berghei [29] = experiment: Antimalarial activity against GFP-transfected Plasmodium berghei strain ANKA infected in NMRI mouse assessed as increase in mean survival time at 50 mg/kg, po administered as single dose (reference value: 5 days )
# Plasmodium berghei [30] = experiment: Antimalarial activity against GFP-transfected Plasmodium berghei strain ANKA infected in NMRI mouse assessed as increase in median survival time at 100 mg/kg/day, po administered for 4 days measured up to 30 days post infection (reference value: 5 to 7 days); format: functional
# Description for Plasmodium falciparum: Antimalarial activity against multidrug-resistant Plasmodium falciparum K1 infected in human red blood cells assessed as 3H-hypoxanthine incorporation after 48 hrs by liquid scintillation counting
smiles,measurement,setting,value
CCN(CC)CCNc1cc(-c2ccc(C(F)(F)F)cc2)c(C#N)c2nc3ccccc3n12.Cl.Cl,pIC50,L6,4.05
same,AUClast,Rattus norvegicus [1],304 µM·min
same,Activity,Rattus norvegicus [2],0.05%
same,AUClast,Rattus norvegicus [3],666 µM·min
same,PPB,Plasma [4],97.9%
same,pIC50,Plasmodium falciparum,7.10
same,t1/2(app),Rattus norvegicus [5],438 min
same,Activity,Plasmodium berghei [6],29.76%
same,Cmax,Rattus norvegicus [7],380 nM
same,t1/2(app),Rattus norvegicus [8],384 min
same,half-life,[9],24.8 min
same,MSD,Plasmodium berghei [10],10 days
same,Activity,Plasmodium berghei [11],59.97%
same,F,Rattus norvegicus [12],> 22%
same,PPB,Plasma [13],96.7%
same,microsomal CLint,[14],71.8 µL/min/mg
same,half-life,[15],13.7 min
same,microsomal CLint,[16],69.8 µL/min/mg
same,Activity,Plasmodium berghei [17],78.22%
same,Tmax,Rattus norvegicus [18],248 min
same,AUClast,Rattus norvegicus [19],290 µM·min
same,Activity,Rattus norvegicus [20],0.05%
same,Vz,Rattus norvegicus [21],18.9 L/kg
same,Activity,Rattus norvegicus [22],0.39%
same,Tmax,Rattus norvegicus [23],1200 min
same,Activity,Plasmodium berghei [24],13.07%
same,Tmax,Rattus norvegicus [25],640 min
same,microsomal CLint,[26],127 µL/min/mg
same,Activity,Plasmodium berghei [27],51.13%
same,half-life,[28],24.1 min
same,MSD,Plasmodium berghei [29],8 days
same,MSD,Plasmodium berghei [30],16 days
